What is called IC50 is the concentration that gives 50% inhibition.

The text below walks through data of patent US11713338B2, “Cyclic peptides multimers targeting α-4-β-7 integrin” (priority 2016, dated 2023).

Assay [1] deals with T1, recombinant integrin α4β1 (Homo sapiens, UniProt P05556+P13612).
T1 construct: purchased R&D Systems 5397-A3-050
The assay is described as follows: Integrin α4β1—VCAM-1 competition ELISA. The format is binding. To be noted: read-out: ELISA a4b1 Assay IC50. The protocol: Integrin α4β1—VCAM-1 Competition ELISA
The plate was incubated at 4° C. overnight. […] The plate was then incubated for 1 hour at room temperature. The plate was washed three times with wash buffer (50 mM Tris, 100 mM NaCl, 1 mM MnCl2, 0.05% Tween). To each well, 50 μl of compound diluted in assay buffer was added by transfer from a compound serial dilution plate. […] The plate was incubated at room temperature with shaking (300 rpm) for 2 hours to reach binding equilibrium. Then the plate was washed three times in wash buffer and 100 μl anti-human IgG Fc specific-HRP (Abcam, Ab97225) diluted at 1:2000 in assay buffer was added to each well. The plate was incubated at room temperature for 1 hour under agitation.
(An ELISA detects its analyte on a solid surface through an enzyme-linked reagent.)

The target in assay [2] is T2, recombinant integrin α4β7 (Homo sapiens, UniProt P13612+P26010, DEL724-798).
T2 construct: purchased R&D Systems 5397-A3-050
T2 sequence (P13612 34-970 limits assumed): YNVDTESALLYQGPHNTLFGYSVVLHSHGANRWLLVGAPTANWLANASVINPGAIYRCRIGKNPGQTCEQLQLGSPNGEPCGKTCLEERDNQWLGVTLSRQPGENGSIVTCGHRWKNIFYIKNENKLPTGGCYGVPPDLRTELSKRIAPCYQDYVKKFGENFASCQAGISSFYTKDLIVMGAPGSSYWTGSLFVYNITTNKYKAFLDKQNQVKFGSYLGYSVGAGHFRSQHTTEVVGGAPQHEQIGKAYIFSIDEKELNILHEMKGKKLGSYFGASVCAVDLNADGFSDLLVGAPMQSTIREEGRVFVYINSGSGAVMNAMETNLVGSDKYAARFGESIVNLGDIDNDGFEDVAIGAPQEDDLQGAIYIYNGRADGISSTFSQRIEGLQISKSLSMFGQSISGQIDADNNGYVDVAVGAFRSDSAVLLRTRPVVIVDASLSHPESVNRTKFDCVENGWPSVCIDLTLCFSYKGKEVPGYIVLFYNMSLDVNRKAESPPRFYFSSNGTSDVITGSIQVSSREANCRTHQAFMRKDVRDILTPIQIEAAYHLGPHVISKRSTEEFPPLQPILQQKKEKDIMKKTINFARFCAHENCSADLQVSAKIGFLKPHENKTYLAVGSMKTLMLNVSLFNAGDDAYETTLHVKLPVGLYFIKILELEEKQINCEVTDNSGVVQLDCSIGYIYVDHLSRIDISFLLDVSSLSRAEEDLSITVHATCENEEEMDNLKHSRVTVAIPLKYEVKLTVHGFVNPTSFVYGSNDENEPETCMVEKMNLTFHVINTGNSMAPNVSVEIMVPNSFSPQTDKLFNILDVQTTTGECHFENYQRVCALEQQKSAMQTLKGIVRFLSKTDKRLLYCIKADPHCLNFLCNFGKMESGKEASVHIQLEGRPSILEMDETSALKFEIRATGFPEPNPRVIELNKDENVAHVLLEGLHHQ
T2 sequence (P26010 20-723 limits assumed): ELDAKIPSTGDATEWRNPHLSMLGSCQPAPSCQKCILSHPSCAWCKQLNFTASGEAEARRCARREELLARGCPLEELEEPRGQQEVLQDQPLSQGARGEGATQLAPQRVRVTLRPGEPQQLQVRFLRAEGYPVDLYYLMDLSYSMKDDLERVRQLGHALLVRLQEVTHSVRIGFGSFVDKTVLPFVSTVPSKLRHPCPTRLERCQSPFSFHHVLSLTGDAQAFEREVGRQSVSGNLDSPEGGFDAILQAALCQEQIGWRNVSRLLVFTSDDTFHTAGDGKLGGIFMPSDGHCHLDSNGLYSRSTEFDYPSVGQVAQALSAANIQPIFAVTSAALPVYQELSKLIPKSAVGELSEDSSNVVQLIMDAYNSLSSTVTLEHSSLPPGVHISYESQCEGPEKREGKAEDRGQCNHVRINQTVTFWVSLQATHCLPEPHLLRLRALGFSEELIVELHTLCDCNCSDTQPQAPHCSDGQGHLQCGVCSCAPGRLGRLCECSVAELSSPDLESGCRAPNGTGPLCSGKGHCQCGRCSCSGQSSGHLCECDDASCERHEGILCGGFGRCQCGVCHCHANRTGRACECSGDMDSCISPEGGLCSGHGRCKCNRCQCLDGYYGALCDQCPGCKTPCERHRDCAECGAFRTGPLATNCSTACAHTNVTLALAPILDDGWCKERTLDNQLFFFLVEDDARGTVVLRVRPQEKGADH
The experiment in a line: Integrin α4β7—MAdCAM-1 ELISA competition assay. To be noted: for ELISA Assay Ratio b1/b7: ratio of a4b1 to a4b7 ELISA IC50; for IC50: read-out: ELISA a4b7 Assay IC50. It is filed as binding.

T1 sequence (P05556 21-728 limits assumed, one chain of several): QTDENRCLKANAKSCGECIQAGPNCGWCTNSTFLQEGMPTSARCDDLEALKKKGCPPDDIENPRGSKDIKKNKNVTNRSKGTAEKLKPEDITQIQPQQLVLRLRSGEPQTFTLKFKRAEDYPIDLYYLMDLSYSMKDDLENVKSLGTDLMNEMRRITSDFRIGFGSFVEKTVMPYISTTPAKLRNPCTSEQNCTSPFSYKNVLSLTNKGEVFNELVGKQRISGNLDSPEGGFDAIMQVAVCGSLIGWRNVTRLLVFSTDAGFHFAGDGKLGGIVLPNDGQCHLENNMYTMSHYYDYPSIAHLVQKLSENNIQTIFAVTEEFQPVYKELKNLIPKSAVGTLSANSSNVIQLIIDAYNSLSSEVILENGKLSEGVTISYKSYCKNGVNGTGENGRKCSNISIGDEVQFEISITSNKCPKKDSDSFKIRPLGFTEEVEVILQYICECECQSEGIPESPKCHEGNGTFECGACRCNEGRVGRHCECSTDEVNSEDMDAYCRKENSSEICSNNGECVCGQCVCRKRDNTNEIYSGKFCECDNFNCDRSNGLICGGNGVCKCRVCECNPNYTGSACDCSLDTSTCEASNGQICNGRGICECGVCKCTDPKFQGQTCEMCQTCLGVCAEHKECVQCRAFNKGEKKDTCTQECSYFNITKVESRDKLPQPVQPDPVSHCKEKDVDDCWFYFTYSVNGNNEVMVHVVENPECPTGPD

`CC(C)C[C@@H]1NC(=O)[C@H]2C[C@H](O)CN2C(=O)[C@H](Cc2cscn2)NC(=O)[C@@H]2CCCN2[C@H](C(=O)NC(C)(C)C)[C@H](C)NC(=O)[C@H]([C@@H](C)O)NC(=O)[C@H](CC(=O)O)NC1=O` [Compound 151]: the half-inhibitory concentration (IC50) in assay [1] amounted to 0.218 µM. Besides, in assay [2], the “ELISA Assay Ratio b1/b7” value is given as 4.1 and the IC50 is 0.053 µM.

Consider `CC(C)C[C@@H]1NC(=O)[C@H]2C[C@H](O)CN2C(=O)[C@H](Cc2ccc(CN)cc2)NC(=O)[C@@H]2CCCN2[C@H](C(=O)NC(C)(C)C)[C@H](C)NC(=O)[C@H]([C@@H](C)O)NC(=O)[C@H](CC(=O)O)NC1=O` [Compound 152], for which, in assay [1], the concentration for half-maximal inhibition (IC50) came out at 1.35 µM. For the same compound, in assay [2], the “ELISA Assay Ratio b1/b7” value came out at 13.2 and the 50% inhibitory concentration (IC50) is 0.102 µM.

For `CC[C@H](C)[C@@H]1NC(=O)[C@H](CC(=O)O)NC(=O)[C@H](CC(C)C)NC(=O)[C@@H](CCCCN)N(C)C(=O)[C@H](Cc2ccc(O)cc2)NC(=O)[C@@H]2CCCN2[C@H](C(=O)NC(C)(C)C)[C@H](C)NC1=O` [Compound 154], the concentration for half-maximal inhibition (IC50) in assay [1] was 2.66 µM. Further, in assay [2], the “ELISA Assay Ratio b1/b7” value is listed as 22.8 and the IC50 came out at 0.117 µM.

For the compound `CC(C)C[C@@H]1NC(=O)[C@@H](CCCNC(=N)N)N(C)C(=O)[C@H](Cc2ccc(O)cc2)NC(=O)[C@@H]2CCCN2[C@H](C(=O)NC(C)(C)C)[C@H](C)NC(=O)[C@H]([C@@H](C)O)NC(=O)[C@H](CC(=O)O)NC1=O` [Compound 157], the IC50 in assay [1] worked out at 3.71 µM. For the same compound, in assay [2], the “ELISA Assay Ratio b1/b7” value amounted to 55.3 and the IC50 worked out at 0.067 µM.

Turning to `C=CCOc1ccc(C[C@@H]2NC(=O)[C@@H]3CCCN3[C@H](C(=O)NC(C)(C)C)[C@H](C)NC(=O)[C@H]([C@@H](C)O)NC(=O)[C@H](CC(=O)O)NC(=O)[C@H](CC(C)C)NC(=O)CNC2=O)cc1` [Compound 163], the 50% inhibitory concentration (IC50) in assay [1] came to 1.39 µM. In addition, in assay [2], the “ELISA Assay Ratio b1/b7” value amounted to 11.0 and the half-inhibitory concentration (IC50) was 0.126 µM.

For the compound `C=CCOc1ccc(C[C@@H]2NC(=O)[C@@H]3CCCN3[C@H](C(=O)NC(C)(C)C)[C@H](C)NC(=O)[C@H]([C@@H](C)O)NC(=O)[C@H](CC(=O)O)NC(=O)[C@H](CC(C)C)NC(=O)[C@@H](C(C)C)NC2=O)cc1` [Compound 166], the figures for the half-inhibitory concentration (IC50) in assay [1] and in assay [2] were 1.38 µM and 0.179 µM, respectively. Further, in assay [2], the “ELISA Assay Ratio b1/b7” value is 7.7.

Regarding `CC(C)C[C@@H]1NC(=O)CN(C)C(=O)[C@H](Cc2csc(-c3ccccn3)n2)NC(=O)[C@@H]2CCCN2[C@H](C(=O)NC(C)(C)C)[C@H](C)NC(=O)[C@H]([C@@H](C)O)NC(=O)[C@H](CC(=O)O)NC1=O` [Compound 179], in assay [1], the IC50 was 2.66 µM. The “ELISA Assay Ratio b1/b7” value in assay [2] is on record as 15.2.

For the compound `CC(C)C[C@@H]1NC(=O)C[C@H](CCCCN)NC(=O)[C@H](CC2CCCCC2)NC(=O)[C@@H]2CCCN2[C@H](C(=O)NC(C)(C)C)[C@H](C)NC(=O)[C@H]([C@@H](C)O)NC(=O)[C@H](CC(=O)O)NC1=O` [Compound 210], in assay [1], the 50% inhibitory concentration (IC50) stood at 1.15 µM. Also, in assay [2], the “ELISA Assay Ratio b1/b7” value was 16.0 and the IC50 is 0.072 µM.

With `CC(C)C[C@@H]1NC(=O)C[C@H](CCCCN)NC[C@H](Cc2ccc(CN)cc2)NC(=O)[C@@H]2CCCN2[C@H](C(=O)NC(C)(C)C)[C@H](C)NC(=O)[C@H]([C@@H](C)O)NC(=O)[C@H](CC(=O)O)NC1=O` [Compound 218], the IC50 in assay [1] was 3.13 µM. For the same compound, in assay [2], the “ELISA Assay Ratio b1/b7” value was 16.5 and the IC50 came out at 0.19 µM.

With `CC[C@H](C)[C@@H]1NC(=O)[C@H](CC(=O)O)NC(=O)[C@H](CC(C)C)NC(=O)C[C@H](CCCCN)NC(=O)[C@@H](Cc2ccc(CN)cc2)NC(=O)[C@@H]2CCCN2[C@H](C(=O)NC(C)(C)C)[C@H](C)NC1=O` [Compound 253], the 50% inhibitory concentration (IC50) in assay [1] was determined as 1.09 µM. For the same compound, in assay [2], the “ELISA Assay Ratio b1/b7” value is given as 15.6 and the 50% inhibitory concentration (IC50) amounted to 0.069 µM.

As to `CC(C)C[C@@H]1NC(=O)C[C@H](CCCCN)NC(=O)[C@H](Cc2ccc(I)cc2)NC(=O)[C@@H]2CCCN2[C@H](C(=O)NC(C)(C)C)[C@H](C)NC(=O)[C@H]([C@@H](C)O)NC(=O)[C@H](CC(=O)O)NC1=O` [Compound 260], the IC50 in assay [1] was determined as 9.56 µM. Also, in assay [2], the “ELISA Assay Ratio b1/b7” value is recorded as 58.1 and the 50% inhibitory concentration (IC50) amounted to 0.165 µM.

Regarding `CC(C)C[C@@H]1NC(=O)C[C@H](CCCCN)NC(=O)[C@](C)(Cc2ccccc2)NC(=O)[C@@H]2CCCN2[C@H](C(=O)NC(C)(C)C)[C@H](C)NC(=O)[C@H]([C@@H](C)O)NC(=O)[C@H](CC(=O)O)NC1=O` [Compound 263], in assay [1], the IC50 was 2.35 µM. In assay [2], the “ELISA Assay Ratio b1/b7” value is 23.1 and the 50% inhibitory concentration (IC50) was 0.102 µM.

`Cc1cccc(C)c1-c1cccc(C[C@@H]2NC(=O)[C@@H]3CCCN3[C@H](C(=O)NC(C)(C)C)[C@H](C)NC(=O)[C@H]([C@@H](C)O)NC(=O)[C@H](CC(=O)O)NC(=O)[C@H](CC(C)C)NC(=O)C[C@H](CCCCN)NC2=O)c1` [Compound 265]: the IC50 in assay [1] came out at 1.82 µM. Also, in assay [2], the “ELISA Assay Ratio b1/b7” value was 46.2 and the concentration for half-maximal inhibition (IC50) is 0.039 µM.

For `Cc1cccc(C)c1-c1ccc(C[C@@H]2NC(=O)[C@@H]3CCCN3[C@H](C(=O)NC(C)(C)C)[C@H](C)NC(=O)[C@H]([C@@H](C)O)NC(=O)[C@H](CC(=O)O)NC(=O)[C@H](CC(C)C)NC(=O)C[C@H](CCCCN)NC2=O)cc1` [Compound 268], the IC50 in assay [1] stood at 1.87 µM. For the same compound, in assay [2], the “ELISA Assay Ratio b1/b7” value came out at 24.6 and the IC50 is 0.076 µM.

Regarding `COc1cccc(Cl)c1-c1ccc(C[C@@H]2NC(=O)[C@@H]3CCCN3[C@H](C(=O)NC(C)(C)C)[C@H](C)NC(=O)[C@H]([C@@H](C)O)NC(=O)[C@H](CC(=O)O)NC(=O)[C@H](CC(C)C)NC(=O)C[C@H](CCCCN)NC2=O)cc1` [Compound 269], the half-maximal inhibitory concentration (IC50) in assay [1] is 1.76 µM; in assay [2], 0.056 µM. In assay [2], the “ELISA Assay Ratio b1/b7” value came to 31.6.

Consider `CC(C)C[C@@H]1NC(=O)C[C@H](CCCCN)NC(=O)[C@H](Cc2ccccc2-c2ccc(N3CCNCC3)cc2)NC(=O)[C@@H]2CCCN2[C@H](C(=O)NC(C)(C)C)[C@H](C)NC(=O)[C@H]([C@@H](C)O)NC(=O)[C@H](CC(=O)O)NC1=O` [Compound 271], for which the concentration for half-maximal inhibition (IC50) in assay [1] was found to be 1.15 µM. The “ELISA Assay Ratio b1/b7” value in assay [2] amounted to 34.6.

For `CC(C)C[C@@H]1NC(=O)C[C@H](CCCCN)NC(=O)C2(CCNCC2)NC(=O)[C@@H]2CCCN2[C@H](C(=O)NC(C)(C)C)[C@H](C)NC(=O)[C@H]([C@@H](C)O)NC(=O)[C@H](CC(=O)O)NC1=O` [Compound 275], the results for the half-maximal inhibitory concentration (IC50) in assay [1] and in assay [2] were 0.779 µM and 0.101 µM, respectively. Further, in assay [2], the “ELISA Assay Ratio b1/b7” value came out at 7.7.

On to `CC[C@@H](C)[C@@H]1NC(=O)[C@H](CC(=O)O)NC(=O)[C@H](CC(C)C)NC(=O)C[C@H](CCCCN)NC(=O)[C@H](Cc2ccc(CN)cc2)NC(=O)[C@@H]2CCCN2[C@H](C(=O)NC(C)(C)C)[C@H](C)NC1=O` [Compound 285], for which the IC50 in assay [1] was 0.553 µM. Moreover, in assay [2], the “ELISA Assay Ratio b1/b7” value came out at 6.2 and the IC50 came to 0.089 µM.
